Structures are written as SMILES. Where two headings read alike, the source gives them in different places.

Consider twelve molecules from patent publication US20230293517A1, “ANTAGONIST COMPOUNDS” (AdoRx Therapeutics Limited, priority 2020, published 2023).

Test [1] deals with human Adenosine A1 receptor (Homo sapiens (Human), UniProt P30542). Put plainly: Adenosine receptor TR-FRET binding assay (A1). To be noted: inhibition of binding of 100 nM CA200645, CHO cell membranes. Put shortly: (§1)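 CHO membranes, Tb-labelled hA1/hA2a/hA2b/hA3; tracer CA200645 at 100 nM (A1, A2a, A3) or 30 nM (A2b); buffer with saponin, 1% DMSO, pluronic; 2 h RT. NSB with 10 μM XAC. Read TR-FRET (ex 337, em 620/665 nm); IC50 → Ki via Cheng–Prusoff.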
human Adenosine A1 receptor, sequence (P30542 whole entry): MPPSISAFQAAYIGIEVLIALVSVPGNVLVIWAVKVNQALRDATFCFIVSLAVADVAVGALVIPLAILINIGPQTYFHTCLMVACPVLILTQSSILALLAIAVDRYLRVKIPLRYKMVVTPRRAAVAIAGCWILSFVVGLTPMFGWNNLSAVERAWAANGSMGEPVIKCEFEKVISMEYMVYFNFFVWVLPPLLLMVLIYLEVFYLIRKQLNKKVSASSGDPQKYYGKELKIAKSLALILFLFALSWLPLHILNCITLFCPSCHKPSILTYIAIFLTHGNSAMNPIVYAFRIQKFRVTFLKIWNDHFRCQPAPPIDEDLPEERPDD

Test [2] has as its target human Adenosine A2b receptor (Homo sapiens (Human), UniProt P29275). Put plainly: Adenosine receptor TR-FRET binding assay (A2b). Put shortly:
as §1
(In general: In TR-FRET formats the signal depends on donor and acceptor labels being close together.)

Test [3] has as its system CD8+T cells in human whole blood. Put plainly: Measurement of pCREB in CD8+T cells in human whole blood. It counts as cell-based. As to conditions: 3 μM NECA, rolipram. Put shortly:
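Heparinised human whole blood pre-incubated 20 min at 37 °C with serially diluted A2a antagonists plus rolipram, then stimulated 60 min with 3 μM NECA (final). After fixation and red-cell lysis, white cells were permeabilized and stained for phospho-CREB and CD8; pCREB in CD8+ T cells measured by flow cytometry.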

For a further test, the system named is human PBMCs. As to the kind of experiment: CD3/CD28 stimulated IL-2 release NECA reversal assay in human PBMCs. The format is cell-based. As to conditions: PBMC, 1 uM NECA, 24 hours, IL-2 in culture supernatant. Put shortly: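 PBMCs from citrated healthy-donor blood plated at 50,000 cells/well on 1 ug/ml CD3 antibody with 1 ug/ml CD28 antibody, 1 uM NECA and 0.003-10 μM antagonist (final), 24 h at 37° C. Supernatant IL-2 measured by MSD immunoassay; % inhibition set against no-NECA control wells as 100%.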

For test [4], the target named is human Adenosine A3 receptor (Homo sapiens (Human), UniProt P0DMS8). Put plainly: Adenosine receptor TR-FRET binding assay (A3). To be noted: inhibition of binding of 100 nM CA200645, CHO cell membranes. Put shortly:
as §1

In test [5] the target is human Adenosine A2a receptor (Homo sapiens (Human), UniProt P29274). As to the kind of experiment: Adenosine receptor TR-FRET binding assay (A2a). To be noted: inhibition of binding of 100 nM CA200645, CHO cell membranes. Put shortly:
as §1

The mark [6] stands for this setting: TR-FRET, inhibition of binding of 30 nM CA200645, CHO cell membranes.

human Adenosine A2a receptor, sequence (P29274 whole entry): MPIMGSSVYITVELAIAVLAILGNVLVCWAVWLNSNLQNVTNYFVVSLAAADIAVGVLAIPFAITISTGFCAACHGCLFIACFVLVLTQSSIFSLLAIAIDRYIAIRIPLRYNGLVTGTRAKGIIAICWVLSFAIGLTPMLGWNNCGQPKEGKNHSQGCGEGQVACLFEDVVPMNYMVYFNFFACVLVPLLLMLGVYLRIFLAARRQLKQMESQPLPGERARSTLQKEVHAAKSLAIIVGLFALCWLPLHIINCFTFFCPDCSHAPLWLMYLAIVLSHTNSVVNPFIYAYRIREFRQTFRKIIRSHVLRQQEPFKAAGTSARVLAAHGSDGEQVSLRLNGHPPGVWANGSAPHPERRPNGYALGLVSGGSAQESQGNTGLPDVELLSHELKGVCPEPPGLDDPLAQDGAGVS
human Adenosine A3 receptor, sequence (P0DMS8 whole entry): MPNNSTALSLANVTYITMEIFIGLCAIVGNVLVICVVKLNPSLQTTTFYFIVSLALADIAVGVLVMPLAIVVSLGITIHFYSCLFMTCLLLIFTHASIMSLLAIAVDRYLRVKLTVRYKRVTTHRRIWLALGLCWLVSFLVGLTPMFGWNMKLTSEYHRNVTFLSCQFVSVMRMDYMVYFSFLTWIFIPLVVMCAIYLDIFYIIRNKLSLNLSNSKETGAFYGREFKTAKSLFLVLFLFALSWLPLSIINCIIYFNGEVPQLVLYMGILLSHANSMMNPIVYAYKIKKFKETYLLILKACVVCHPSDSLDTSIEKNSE
human Adenosine A2b receptor, sequence (P29275 whole entry): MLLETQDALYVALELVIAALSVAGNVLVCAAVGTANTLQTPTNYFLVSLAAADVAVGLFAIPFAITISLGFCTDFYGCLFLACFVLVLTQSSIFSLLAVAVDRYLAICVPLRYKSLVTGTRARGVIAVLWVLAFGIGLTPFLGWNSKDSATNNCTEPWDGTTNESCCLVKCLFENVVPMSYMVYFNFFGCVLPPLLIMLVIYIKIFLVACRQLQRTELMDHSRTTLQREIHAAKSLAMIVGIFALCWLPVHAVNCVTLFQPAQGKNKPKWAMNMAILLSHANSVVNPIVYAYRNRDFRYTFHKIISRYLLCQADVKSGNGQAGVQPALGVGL

Consider `Cc1cc(-c2sc(NC(=O)N3CCC4(CC3)CN(C)C(=O)O4)nc2-c2cccc(C#N)c2)cc(C)n1` [Example 6.12, N-[4-(3-Cyanophenyl)-5-(2,6-dimethyl-4-pyridyl)thiazol-2-yl]-3-methyl-2-oxo-1-oxa-3,8-diazaspiro[4.5]decane-8-carboxamide], for which the inhibitory constant (Ki) – broadly, a dissociation constant, usually derived from enzyme kinetics or from competition with a known ligand – in test [1] turned out to be 137 nM; in test [2] (setting [6]), 2.4 nM; in test [4], 298 nM; in test [5], 0.23 nM. In addition, the results for the IC50 (in test [3]; with human PBMCs) were 110 nM and 2.7 nM, respectively.
Consider `CC(=O)N1CCN(C(=O)Nc2nc(-c3cccc(C#N)c3)c(-c3cc(C)nc(C)c3)s2)CC1` [Example 4.17, 4-Acetyl-N-[4-(3-cyanophenyl)-5-(2,6-dimethyl-4-pyridyl)thiazol-2-yl]piperazine-1-carboxamide], for which the inhibition constant (Ki) in test [1] was found to be 77 nM; in test [2] (setting [6]) it was 2.8 nM; in test [4] it was 293 nM; in test [5], 1.9 nM. Moreover, the IC50 – broadly, the point on the concentration scale where inhibition reaches its midpoint – in test [3] worked out at 370 nM; in the test on human PBMCs it was 8.5 nM.
For `Cc1cc(-c2sc(NC(=O)N3CCC4(CC3)CNC4=O)nc2-c2cccc(C#N)c2)cc(C)n1` [Example 6.20, N-[4-(3-Cyanophenyl)-5-(2,6-dimethyl-4-pyridyl)thiazol-2-yl]-3-oxo-2,7-diazaspiro[3.5]nonane-7-carboxamide], the Ki in test [1] is 53 nM; in test [2] (setting [6]) it was 1.9 nM; in test [4] it was 287 nM; in test [5], 0.14 nM. The IC50 in test [3] amounted to 20 nM; in the test on human PBMCs, 1.8 nM.
Take `Cc1cc(-c2sc(NC(=O)N3CCC4(CCNC4=O)CC3)nc2-c2cccc(C#N)c2)cc(C)n1` [Example 6.24, N-[4-(3-Cyanophenyl)-5-(2,6-dimethyl-4-pyridyl)thiazol-2-yl]-1-oxo-2,8-diazaspiro[4.5]decane-8-carboxamide]: the Ki in test [1] came to 129 nM; in test [2] (setting [6]) it was 2.5 nM; in test [4] it was 224 nM; in test [5], 0.99 nM. In addition, the IC50 in test [3] was 90 nM; in the test on human PBMCs it was 4.7 nM.
Consider `Cc1cc(-c2sc(NC(=O)N3CCN4C(=O)CCC4C3)nc2-c2cccc(C#N)c2)cc(C)n1` (stereo not drawn) [Example 6.18, N-[4-(3-Cyanophenyl)-5-(2,6-dimethyl-4-pyridyl)thiazol-2-yl]-6-oxo-1,3,4,7,8,8a-hexahydropyrrolo[1,2-a]pyrazine-2-carboxamide], for which the Ki amounted to 70 nM in test [1], 6.1 nM in test [2] (setting [6]), 332 nM in test [4] and 0.33 nM in test [5]. The half-inhibitory concentration (IC50) came to 40 nM in test [3] and 5 nM with human PBMCs.
Consider `Cc1cc(-c2sc(NC(=O)N3CCN[C@@H](C)C3)nc2-c2cccc(C#N)c2)cc(Cl)n1` [Example 5.4, (3S)-N-[5-(2-Chloro-6-methyl-4-pyridyl)-4-(3-cyanophenyl)thiazol-2-yl]-3-methyl-piperazine-1-carboxamide], for which the Ki in test [1] turned out to be 111 nM; in test [2] it was 5.8 nM; in test [4], 33 nM; in test [5], 1.03 nM. For the same molecule, the IC50 stood at 1950 nM in test [3] and 71.8 nM in the test on human PBMCs.
Consider `Cc1cc(-c2sc(NC(=O)N3CCN(S(N)(=O)=O)CC3)nc2-c2cccc(C#N)c2)cc(C)n1` [Example 4.19, N-[4-(3-cyanophenyl)-5-(2,6-dimethyl-4-pyridyl)thiazol-2-yl]-4-sulfamoyl-piperazine-1-carboxamide], for which the inhibition constant (Ki) in test [1] came out at 46 nM; in test [2], 1.3 nM; in test [4] it was 232 nM; in test [5], 0.6 nM. Also, the values for the IC50 (in test [3]; with human PBMCs) were 5520 nM and 5.4 nM, respectively.
Take `Cc1cc(-c2sc(NC(=O)N3CCC(C#N)(CO)CC3)nc2-c2cccc(C#N)c2)cc(CO)n1` [Example 9.7]: the Ki was determined as 68 nM in test [1], 3.2 nM in test [2] (setting [6]), 742 nM in test [4] and 0.42 nM in test [5]. The results for the IC50 (in test [3]; in the test with human PBMCs) were 10 nM and 1 nM, respectively.
Regarding `Cc1cc(-c2sc(NC(=O)N3CC[C@H](O)C3)nc2-c2cccc(C#N)c2)cc(C)n1` [Example 4.5, (3S)-N-[4-(3-Cyanophenyl)-5-(2,6-dimethyl-4-pyridyl)thiazol-2-yl]-3-hydroxy-pyrrolidine-1-carboxamide], the Ki in test [1] came to 16 nM; in test [2] (setting [6]) it was 1.4 nM; in test [4], 94 nM; in test [5], 1.54 nM. Moreover, the IC50 in test [3] came to 160 nM; with human PBMCs it was 8.5 nM.
On to `Cc1cc(-c2sc(NC(=O)N3CC(CO)C3)nc2-c2cccc(C#N)c2)cc(C)n1` [Example 4.25, N-[4-(3-Cyanophenyl)-5-(2,6-dimethyl-4-pyridyl)thiazol-2-yl]-3-(hydroxymethyl)azetidine-1-carboxamide], for which the Ki in test [1] was 14 nM; in test [2] (setting [6]), 1.8 nM; in test [4], 120 nM; in test [5], 0.12 nM. Moreover, the IC50 in test [3] came out at 50 nM; in the test on human PBMCs, 1.1 nM.
As for `Cc1cc(-c2sc(NC(=O)N3CCN[C@H](C)C3)nc2-c2cccc(C#N)c2)cc(Cl)n1` [Example 5.5, (3R)-N-[5-(2-Chloro-6-methyl-4-pyridyl)-4-(3-cyanophenyl)thiazol-2-yl]-3-methyl-piperazine-1-carboxamide], the inhibitory constant (Ki) is 114 nM in test [1], 2.4 nM in test [2] (setting [6]), 70 nM in test [4] and 0.94 nM in test [5]. The IC50 came out at 2690 nM in test [3] and 30.6 nM in the test with human PBMCs.
`Cc1cc(-c2sc(NC(=O)N3CC4(C3)CC(C)(O)C4)nc2-c2cccc(C#N)c2)cc(C)n1` [Example 6.44, N-[4-(3-Cyanophenyl)-5-(2,6-dimethyl-4-pyridyl)thiazol-2-yl]-6-hydroxy-6-methyl-2-azaspiro[3.3]heptane-2-carboxamide]: the Ki was found to be 151 nM in test [1], 2.4 nM in test [2] (setting [6]), 299 nM in test [4] and 0.4 nM in test [5]. In addition, the results for the IC50 (in test [3]; in the test on human PBMCs) were 100 nM and 3.1 nM, respectively.
